In patent US4212862A, “O,O-Diaryl-1-acyloxy-2,2,2-trichloroethylphosphonates and fungicides based thereon” (priority 1978, dated 1980):
“And” between values parts separate entries of the source, which are not always exact repeats. Equal entries are not always repeated. Where two headings read alike, the source gives them in different places.

Columns and labels:
[1] = system: potato phytophthora (Phytophthora infestans); type: in vivo; settings: 1% aqueous emulsion; 18 °C, 14 days
[2] = system: stalk rust (Puccinia graminis f. tritici); type: in vivo; settings: 3 kg/ha a.i.
[3] = system: stalk rust (Puccinia graminis f. tritici); type: in vivo; settings: Table 8, 3.0 kg/ha, 3 sprayings
[4] = system: yellow rust (P. striiformis); assay: Efficiency of Aphos for USVS against yellow rust of wheat under field conditions (Table 8); type: in vivo; settings: Taskent region, spring wheat Kzyl Shark, 3.0 kg/ha, 7.5 l/ha (Zineb 600), 3 sprayings
yellow rust of wheat = settings: in vivo
[5] = system: apple scab (Venturia inaequalis); settings: in vivo
[6] = system: rust diseases of cereal crops; assay: Activity against rust diseases of cereal crops (general statements); type: in vivo; settings: frequent heavy rains
[7] = system: rust diseases of cereal crops; settings: prior art; cited from earlier work
[8] = prior art; cited from earlier work
plants = settings: prior art; cited from earlier work
[9] = Krasnodar region, winter wheat Odesskaja-51, 7.5 l/ha (Zineb 3.2 kg/ha, 600 l/ha)
[10] = Moscow region, spring wheat Krasnozernaja, 7.5 l/ha (Zineb 600)

CN(C)C(=S)SSC(=S)N(C)C [TMTD, tetramethylthiuramdisulphide]
sporulation on treated tubers [1]: individual conidia were observed

zinc ethylenebisdithiocarbamate [Zineb]
Weight of 1,000 grains ([2]; three sprayings): 14.0 g | Yield ([2]; three sprayings): 8.55 c/ha | Percentage of plants injured with rust, 1-st evaluation ([2]; 9 days after the first spraying, Moscow region, spring wheat Krasnozernaja): 0.5% | Percentage of plants injured with rust, 2-nd evaluation ([2]; two weeks after the third spraying, Moscow region, spring wheat Krasnozernaja): 12.0% | Grain yield [3, 9]: 34.5 c/ha | Percentage of injured plants [3, 9]: 16.0% | Weight of 1,000 grains [3, 9]: 35.6 g | Grain yield [3, 10]: 8.0 c/ha | Percentage of injured plants [3, 10]: 23.3% | Weight of 1,000 grains [3, 10]: 12.6 g | Grain yield [4]: 20.8 c/ha | Percentage of injured plants [4]: 14.4% | Weight of 1,000 grains [4]: 31.6 g | Percentage of injured plants, 17.05 (yellow rust of wheat): 4% and 6% and 5% | Weight of 1,000 grains (yellow rust of wheat): 35.4 g and 31.0 g and 34.8 g | Yield (yellow rust of wheat): 411 and 351 and 412 | efficiency with longer intervals between sprayings (yellow rust of wheat): substantially reduced to zero | reduced the degree of injury as compared to the control [5]: 97% | efficiency under different agroclimatic conditions including frequent heavy rains [6]: low-effective | activity against rust diseases [7]: high activity | stability upon storage [8]: not stable upon storage

Nc1ccc(S(=O)(=O)O)cc1 [anilate]
activity against rust diseases [7]: low-efficiency | phytotoxicity (plants): phytotoxic
